Patent publication US20240261318A1, “ANTI-AGING COSMETIC COMPOSITION” (LG HOUSEHOLD & HEALTH CARE LTD., priority 2021, published 2024)

Test system: FGF10
Experiment: Analysis of mRNA expression of FGF10 in human dermal fibroblasts (qPCR)
Format: cell-based
Conditions: for Expression level (% relative to control): FGF10 mRNA, human dermal fibroblasts, 48 hours; for mRNA expression of FGF 10: human fibroblasts treated with the single substance, result in words
Experimental: Human dermal fibroblasts (neonatal) were purchased from Lonza and then cultured in a carbon dioxide incubator at 37° C. and 5% carbon dioxide. In this case, as a medium for culturing, a medium containing Dulbecco's modified eagle medium (DMEM; Thermo Fisher Scientific) with 10% fetal bovine serum (FBS) and 1% antibiotics (penicillin/streptomycin) was used. Afterward, 20000 cells were seeded in a 6-well plate, and 24 hours later, the DMEM culture medium was treated with each sample having compositions shown in Tables 1 and 2 and cultured again for another 48 hours. As a control, a DMEM culture medium not including any other components was used.

| Compound | Expression level (% relative to control) (Table 1, sample at 8 ppm) [%] | Expression level (% relative to control) (Table 2, sample at 8 ppm) [%] | mRNA expression of FGF 10 | Expression level (% relative to control) (Table 1, sample at 0.2 ppm) [%] | Expression level (% relative to control) (Table 2, sample at 0.2 ppm) [%] |
| --- | --- | --- | --- | --- | --- |
| Nc1ncnc2c1ncn2[C@@H]1O[C@H](CO)[C@@H](O)[C@H]1O [Adenosine, reference compound] | 88 | 88 | no effect on increasing the expression of FGF 10 | – | – |
| C=C1CC[C@@H]2[C@](C)(CO)[C@H](O)CC[C@@]2(C)[C@@H]1C/C=C1/C(=O)OC[C@H]1O [Andrographolide, andrographolide] | – | – | promoted | 141 | – |
| Nc1ncnc2c1ncn2[C@@H]1O[C@H](CO)C[C@H]1O [Cordycepin, cordycepin] | 148 | – | promoted | – | 102 |
| O=c1c(O)c(-c2ccc(O)c(O)c2)oc2cc(O)cc(O)c12 [Quercetin, quercetin] | – | – | promoted | – | 63 |
